#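 A five-concentration, 48-hour dose response in 96-well plates underlies each endpoint, interpolated linearly between surrounding concentrations. Abbreviation: GI50, concentration required for 50% inhibition of growth. At the TGI there is no net growth.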
# What was measured:
# Experiment in all cases: NCI-60 cell line screen, 48 h
# [1] = tested on: ACHN renal
# [2] = tested on: EKVX NSCLC
# [3] = tested on: HCT-15 colon
# [4] = tested on: NCI-H226 lung
# [5] = tested on: OVCAR-5 ovarian
# [6] = tested on: OVCAR-8 ovarian
# [7] = tested on: RXF 393 renal
# [8] = tested on: SN12C renal
# [9] = tested on: SNB-19 CNS
# [10] = tested on: T-47D breast
smiles,measurement,setting,value
Cc1n[nH]c(=S)n(C)c1=S,TGI,[1],> 100 µM
same,TGI,[2],> 100 µM
same,TGI,[3],> 100 µM
same,TGI,[4],> 100 µM
same,TGI,[5],> 100 µM
same,TGI,[6],> 100 µM
same,TGI,[7],> 100 µM
same,TGI,[8],> 100 µM
same,TGI,[9],> 100 µM
COC(=O)c1ccccc1N(C(=O)c1ccccc1)c1ccccc1C,TGI,[1],> 100 µM
same,TGI,[2],> 100 µM
same,TGI,[3],> 100 µM
same,TGI,[4],> 100 µM
same,TGI,[5],> 100 µM
same,TGI,[6],> 100 µM
same,TGI,[7],92.1 µM
same,TGI,[8],> 100 µM
same,TGI,[9],> 100 µM
CSc1c(C2=C(c3cn(C)c4ccccc34)C(=O)NC2=O)c2ccccc2n1C,GI50,[1],0.845 µM
same,TGI,[1],> 25 µM
same,GI50,[3],0.755 µM
same,TGI,[3],> 25 µM
same,GI50,[4],3.21 µM
same,TGI,[4],> 25 µM
same,GI50,[5],23.4 µM
same,TGI,[5],> 25 µM
same,GI50,[6],1.56 µM
same,TGI,[6],> 25 µM
same,GI50,[7],0.273 µM
same,TGI,[7],1.4 µM
same,GI50,[8],1.49 µM
same,TGI,[8],> 25 µM
same,GI50,[9],> 25 µM
same,TGI,[9],> 25 µM
same,GI50,[10],1.15 µM
same,TGI,[10],> 25 µM
CCOC(=O)C(=O)Nc1nc2c(OCC)cccc2s1,TGI,[1],> 100 µM
same,TGI,[2],> 100 µM
same,TGI,[3],> 100 µM
same,TGI,[4],> 100 µM
same,TGI,[5],> 100 µM
same,TGI,[6],> 100 µM
same,TGI,[7],> 100 µM
same,TGI,[8],> 100 µM
same,TGI,[9],> 100 µM
COc1cc2c(c(OC)c1OC)-c1ccc(O)cc1[C@@H](NC(C)=O)CC2,GI50,[1],0.166 µM
same,TGI,[1],> 100 µM
same,GI50,[2],0.0577 µM
same,TGI,[2],> 100 µM
same,GI50,[3],0.123 µM
same,TGI,[3],> 100 µM
same,GI50,[4],0.117 µM
same,TGI,[4],> 100 µM
same,GI50,[5],0.215 µM
same,TGI,[5],> 100 µM
same,GI50,[6],0.0562 µM
same,TGI,[6],> 100 µM
same,GI50,[8],0.0897 µM
same,TGI,[8],> 100 µM
same,GI50,[9],0.0554 µM
same,TGI,[9],> 100 µM
same,GI50,[10],0.0495 µM
same,TGI,[10],> 100 µM
COc1cc(C2CC(c3cccc(Nc4ccnc5cc(Cl)ccc45)c3)=NN2c2ccc(Cl)cc2)cc(OC)c1OC (stereo not drawn),GI50,[1],1.48 µM
same,TGI,[1],> 100 µM
same,GI50,[3],1.28 µM
same,TGI,[3],> 100 µM
same,GI50,[4],8.45 µM
same,TGI,[4],> 100 µM
same,GI50,[5],13.2 µM
same,TGI,[5],> 100 µM
same,GI50,[6],5.36 µM
same,TGI,[6],> 100 µM
same,GI50,[7],2.42 µM
same,TGI,[7],34.4 µM
same,GI50,[8],7.24 µM
same,TGI,[8],> 100 µM
same,GI50,[9],30.3 µM
same,TGI,[9],> 100 µM
same,GI50,[10],0.687 µM
same,TGI,[10],> 100 µM
N.N.N.N.N.NC(=O)[O-].[Co+3].[I-],GI50,[1],> 100 µM
same,TGI,[1],> 100 µM
same,GI50,[2],> 100 µM
same,TGI,[2],> 100 µM
same,GI50,[3],> 100 µM
same,TGI,[3],> 100 µM
same,GI50,[5],> 100 µM
same,TGI,[5],> 100 µM
same,GI50,[6],> 100 µM
same,TGI,[6],> 100 µM
same,GI50,[8],> 100 µM
same,TGI,[8],> 100 µM
same,GI50,[9],> 100 µM
same,TGI,[9],> 100 µM
CC(C)N(O)C(=N)c1ccccc1,TGI,[2],> 100 µM
same,TGI,[4],> 100 µM
same,TGI,[5],> 100 µM
same,TGI,[6],> 100 µM
same,TGI,[7],> 100 µM
same,TGI,[8],> 100 µM
same,TGI,[9],> 100 µM
Cc1ccc(-c2nc3ccccc3c(=O)n2NCC2(O)OCC(O)C(O)C2O)cc1 (stereo not drawn),TGI,[1],> 100 µM
same,TGI,[2],> 100 µM
same,TGI,[3],> 100 µM
same,TGI,[5],> 100 µM
same,TGI,[6],> 100 µM
same,TGI,[7],> 100 µM
same,TGI,[8],> 100 µM
same,TGI,[9],> 100 µM
C=C(CO)CC(O)c1cc(OC)ccc1OC (stereo not drawn),TGI,[1],> 100 µM
same,TGI,[2],> 100 µM
same,TGI,[3],> 100 µM
same,TGI,[4],> 100 µM
same,TGI,[5],> 100 µM
same,TGI,[6],> 100 µM
same,TGI,[7],> 100 µM
same,TGI,[8],> 100 µM
same,TGI,[9],> 100 µM
COC(=O)C1=C(O)[C@H](C(=O)OC)C2(O)C(C(=O)OC)[C@H](c3ccc(OC(=O)C(C)c4ccccc4)cc3)C[C@@H]1[C@@H]2C(=O)OC (stereo partly drawn),GI50,[1],19.2 µM
same,TGI,[1],> 50 µM
same,GI50,[2],32.5 µM
same,TGI,[2],> 50 µM
same,GI50,[3],18.4 µM
same,TGI,[3],> 50 µM
same,GI50,[5],> 50 µM
same,TGI,[5],> 50 µM
same,GI50,[6],15 µM
same,TGI,[6],> 50 µM
same,GI50,[7],13.7 µM
same,TGI,[7],> 50 µM
same,GI50,[8],23.7 µM
same,TGI,[8],> 50 µM
same,GI50,[9],23.7 µM
same,TGI,[9],> 50 µM
same,GI50,[10],12.3 µM
same,TGI,[10],> 50 µM
CC1=CC(C)=NN=C(N)N1S(=O)(=O)c1cc(C)c(Cl)cc1SCc1ccccc1,GI50,[1],24.4 µM
same,TGI,[1],> 100 µM
same,GI50,[2],6.08 µM
same,TGI,[2],> 100 µM
same,GI50,[3],7.86 µM
same,TGI,[3],> 100 µM
same,GI50,[4],58.5 µM
same,TGI,[4],> 100 µM
same,GI50,[5],> 100 µM
same,TGI,[5],> 100 µM
same,GI50,[6],56.6 µM
same,TGI,[6],> 100 µM
same,GI50,[8],32.2 µM
same,TGI,[8],> 100 µM
same,GI50,[9],30.3 µM
same,TGI,[9],> 100 µM
same,GI50,[10],4.21 µM
same,TGI,[10],79.1 µM
C[C@]12CCC(=O)C(OC(=O)c3ccc([N+](=O)[O-])cc3)=C1CCC2=O,TGI,[1],> 100 µM
same,TGI,[2],> 100 µM
same,TGI,[3],> 100 µM
same,TGI,[4],> 100 µM
same,TGI,[5],> 100 µM
same,TGI,[6],> 100 µM
same,TGI,[7],> 100 µM
same,TGI,[8],> 100 µM
same,TGI,[9],> 100 µM
COc1cc(OC)c(C(=O)c2cccs2)cc1N,TGI,[1],> 100 µM
same,TGI,[2],> 100 µM
same,TGI,[3],> 100 µM
same,TGI,[5],> 100 µM
same,TGI,[6],> 100 µM
same,TGI,[7],> 100 µM
same,TGI,[8],> 100 µM
same,TGI,[9],> 100 µM
O=C1/C=C/[C@@H](O)[C@@H]2C[C@@H](O)C[C@H]2/C=C/CCC[C@H](CCc2cccc3ccccc23)O1,GI50,[1],0.305 µM
same,TGI,[1],12.5 µM
same,GI50,[2],0.0816 µM
same,TGI,[2],14 µM
same,GI50,[3],0.326 µM
same,TGI,[3],10.5 µM
same,GI50,[4],0.0178 µM
same,TGI,[4],0.0351 µM
same,GI50,[5],0.103 µM
same,TGI,[5],13.9 µM
same,GI50,[6],0.0491 µM
same,TGI,[6],13 µM
same,GI50,[7],0.0227 µM
same,TGI,[7],0.0674 µM
same,GI50,[8],0.248 µM
same,TGI,[8],11.5 µM
same,GI50,[9],0.0923 µM
same,TGI,[9],22 µM
CN1CN(C2OC(CO)C(O)C2O)c2nc(N)[nH]c(=O)c21 (stereo not drawn),TGI,[1],> 100 µM
same,TGI,[2],> 100 µM
same,TGI,[3],> 100 µM
same,TGI,[4],> 100 µM
same,TGI,[5],> 100 µM
same,TGI,[6],> 100 µM
same,TGI,[7],> 100 µM
same,TGI,[8],> 100 µM
same,TGI,[9],> 100 µM
COc1cc(/C=C(\NC(=O)c2ccccc2)c2nc3ccc4c(c3[nH]2)C(=O)c2ccccc2C4=O)cc(OC)c1OC,TGI,[2],> 100 µM
same,TGI,[3],> 100 µM
same,TGI,[4],> 100 µM
same,TGI,[5],> 100 µM
same,TGI,[6],> 100 µM
same,TGI,[7],86.8 µM
same,TGI,[8],> 100 µM
same,TGI,[9],> 100 µM
N#CC(C(=O)C(=O)Nc1ccccc1)c1ccccc1 (stereo not drawn),TGI,[1],> 100 µM
same,TGI,[2],> 100 µM
same,TGI,[3],> 100 µM
same,TGI,[4],> 100 µM
same,TGI,[8],> 100 µM
same,TGI,[9],> 100 µM

# Source: PubChem BioAssay (NCI)
